Data taken from US9532990B2 (Zhejiang DTRM Biopharma Co. Ltd., priority 2014, dated 2017).
Like-named read-outs stand apart in the source and are kept apart here.

Assays:
[1] = rats, 40 mg/kg, U.S. FDA NDA 205552 pharmacological review, cited from earlier work
[2] = dogs, 24 mg/kg, U.S. FDA NDA 205552 pharmacological review, cited from earlier work
TMD-8 lymphoma xenograft = TMD-8 lymphoma xenograft SCID mouse model; type: in vivo; settings: BID, 14 days (FIG. 1); for Antitumor effect: Oral
Protocol: Compounds (Compounds 45 and others) alone and its combinations were evaluated against tumor growth in xenograft models in female CB-17 SCID mice. The TMD-8, DoHH2, WSU-DLCL2 tumor cells were maintained in vitro as a suspension culture in RPMI-1640 medium supplemented with 10% heat inactivated fetal calf serum at 37° C. in an atmosphere of 5% CO2 in air. The tumor cells were routinely subcultured twice weekly. The cells growing in an exponential growth phase were harvested and counted for tumor inoculation. Each mouse was inoculated subcutaneously at the right flank with the tumor cells (10×10^6) in 0.2 ml of PBS with Matrigel (1:1) for tumor development. The treatments were started after the average tumor size reached approximately 100-200 mm^3. Each group consisted of 6-10 tumor-bearing mice. The testing article (vehicle, compound or combination) was orally administrated to the mice according to the predetermined doses for 14-days or 21-days. Animal body weight and tumor volume were measured every 2-or 3-days throughout the treatment.

BTK wild type = BTK wild type (Homo sapiens (Human), UniProt Q06187); assay: Inhibition assay of BTK kinase activity (HTRF); type: biochemical
Protocol: Inhibition Assay of BTK Kinase Activity:
The enzyme reaction mixture of BTK wild type standard HTRF assay contained 1 nM BTK wild type, 1 μM biotin-TK1 peptide, and 30 μM ATP in a buffer. The enzyme reaction were carried out at room temperature for 60 minutes. […] The plates were incubated at room temperature for 60 minutes and then read in the Envision plate reader.

Chain of BTK wild type (Q06187 whole entry): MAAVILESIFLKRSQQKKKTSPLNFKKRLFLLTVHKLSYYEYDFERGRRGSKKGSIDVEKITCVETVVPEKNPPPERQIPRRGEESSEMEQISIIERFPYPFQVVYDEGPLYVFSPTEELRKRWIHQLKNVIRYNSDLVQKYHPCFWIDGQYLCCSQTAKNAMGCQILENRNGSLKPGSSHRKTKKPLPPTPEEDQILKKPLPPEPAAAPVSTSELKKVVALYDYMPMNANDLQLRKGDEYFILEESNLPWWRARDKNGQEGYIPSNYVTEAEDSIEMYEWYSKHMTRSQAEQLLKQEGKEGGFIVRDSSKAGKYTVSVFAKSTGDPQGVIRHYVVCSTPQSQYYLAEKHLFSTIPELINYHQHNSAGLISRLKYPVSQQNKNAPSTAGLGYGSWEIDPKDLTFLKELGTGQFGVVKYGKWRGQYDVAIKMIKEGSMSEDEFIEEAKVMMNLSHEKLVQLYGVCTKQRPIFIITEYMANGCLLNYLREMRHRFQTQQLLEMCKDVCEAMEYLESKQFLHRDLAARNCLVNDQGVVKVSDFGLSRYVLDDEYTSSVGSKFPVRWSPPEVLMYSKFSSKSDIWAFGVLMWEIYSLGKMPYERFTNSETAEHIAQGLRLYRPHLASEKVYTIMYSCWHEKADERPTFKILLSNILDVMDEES

SMILES | AUC (area under the curve) ([1]; female) [ng·h/mL] | AUC (area under the curve) ([1]; male) | AUC ([2]; female) | AUC ([2]; male) | Antitumor effect (TMD-8 lymphoma xenograft; 10 mg/kg) [%] | Antitumor effect (TMD-8 lymphoma xenograft; 30 mg/kg) [%] | TMD-8 tumor growth suppression (TMD-8 lymphoma xenograft; multiple doses, p.o.) | IC50 (BTK wild type; all compounds with IC50 of less 10 nM, read-out: IC50 (BTK)) [nM] | IC50 (BTK wild type; read-out: BTK IC50) [nM]
C=CC(=O)N1CCC[C@@H](n2nc(-c3ccc(Oc4ccccc4)cc3)c3c(N)ncnc32)C1 [ibrutinib] | 3300 | 1,000 h*ng/mL | 1,850 h*ng/mL | 1,780 h*ng/mL | – | – | – | – | –
C=CC(=O)N1CCC[C@@H](n2nc(-c3ccc(Oc4c(F)c(F)cc(F)c4F)cc3F)c3c(N)ncnc32)C1 [Compound 33, 1-((R)-3-(4-amino-3-(2-fluoro-4-(2,3,5,6-tetrafluorophenoxy)phenyl)-1H-pyrazolo[3,4-d]pyrimidin-1-yl)piperidin-1-yl)prop-2-en-1-one] | – | – | – | – | 56 | 77 | significant TMD-8 tumor growth suppressions were dose-depended | < 10 | 2
